Measurements as given in paper PMC6268972, “Antiproliferative, Antimicrobial and Apoptosis Inducing Effects of Compounds Isolated from Inula viscosa” (Molecules, 2012).
≈ marks a conversion by molar mass, not a printed value.

What was measured:
[1] = test system: Methicillin resistant Staphylococcus aureus (MRSA); experiment: Microtiter plate dilution MIC, MRSA; type: cell-based; settings: Staphylococcus aureus, MRSA; clinical isolate, 24 h, 100% inhibition; read-out: Minimum inhibitory concentration (MIC) MRSA
Procedure: (§1) The microbial strains used in this study were Escherichia coli (ATCC 10798), Salmonella typhimurium (ATCC14028), Methicillin resistant Staphylococcus aureus (MRSA, Clinical isolate), Bacillus cereus (Toxigenic strain TS), and Candida albicans (ATCC 90028). Bacterial strains were stocked onto nutrient agar slant at 4 °C, and Candida albicans was stocked onto malt agar slant at 4 °C.
(§2) The microtiter plate dilution method was used to determine the MIC (minimum inhibitory concentration) of compounds under study. Sterile 96-well microplates (Nunc) were used for the assay. Stock compounds were dissolved in DMSO so that the final concentrations in micro wells were less than 1% DMSO and solvent controls were run at these concentrations. Positive controls of penicillin G and tetracycline (Oxoid, Hampshire, UK) were prepared at the following concentrations 2, 4, 8, 16, 31, 62.5, 125, and 250 μg/mL. 1% DMSO was used as a solvent control. Compounds were diluted to twice the desired initial test concentration (250 µg/mL) with Muller Hinton broth (MHB) (Oxoid). All wells, except the first were filled with MHB (50 μL). Compounds (100 μL) were added to the first well and serial two-fold dilutions were made down to the desired minimum concentration (2 μg/mL). An over-night culture of bacteria suspended in MHB was adjusted to turbidity equal to 0.5 McFarland standard. The plates were inoculated with bacterial suspension (50 μL/well) and incubated at 37 °C for 24 h. Then the turbidity was measured using micro-plate reader (Biotek) at 620 nm wavelength. The same procedure was used to determine the antifungal activity of compounds against Candida albicans. The medium used was malt extract broth. The yeast cells were suspended in 0.85% saline, with an optical density equivalent to 0.5 McFarland standard, and diluted 1:100 in malt extract broth to obtain the working concentration. After 24 h incubation with each compound, the turbidity was measured at 530 nm wavelength using a spectrophotometer (Biotek). Percentage inhibition for tested microorganisms was calculated using the following formula:
(§3) MIC was determined as the lowest concentration of the compound that causes complete inhibition (100%) of each microorganism.

Candida albicans = experiment: Microtiter plate dilution MIC, C. albicans; type: cell-based; settings: Candida albicans, ATCC90028; ATCC 90028, malt extract broth, 24 h, 100% inhibition; read-out: Minimum inhibitory concentration (MIC) C.a
Procedure: as §1, §2, §3

MCF-7 cells [2] = experiment: TUNEL colorimetric apoptosis assay; type: cell-based, human; settings: 15 µg/mL, 28 h, compared with untreated cells
Procedure: Apoptosis was detected using terminal deoxynucleotidyl transferase (TdT) mediated-16-deoxyuridine triphosphate (dUTP) Nick-End Labelling (TUNEL) system (Promega, Madison, WI, USA). MCF-7 cells cultured in 24 well plates were treated with 15 µg/mL of either 3-O-methylquercetin or 3,3′-di-O-methylquercetin for 28 h. The assay was conducted according to the manufacturer's instructions. Briefly, treated cells were fixed using 10% formalin followed by washing with phosphate buffer saline (PBS). Cells were then permeabilized using 0.2% triton X-100. Biotinylated dUTP in rTdT reaction mixture was added to label the fragmented DNA at 37 °C for one hour, followed by blocking endogenous peroxidases using 0.3% hydrogen peroxide. Streptavidin HRP (1:500 in PBS) was added and incubated at room temperature for 30 min. Finally, hydrogen peroxide and chromagen diaminobenzidine were used to visualize nuclei with fragmented DNAs under the light microscope (Novex, Arnhem, Holland). Cells treated with 40 nM vincristine sulfate were used as a positive control while untreated cells were used as a negative control.

MCF-7 cells [3] = experiment: Scanning electron microscopy of MCF-7 cells; type: cell-based, human; settings: 15 µg/mL compound (vincristin sulfate 40 nM), 48 h
Procedure: MCF-7 cells were cultured in complete DMEM containing either 15 µg/mL of 3-O-methylquercetin or 3,3′-di-O-methylquercetin and incubated for 48 h in humidified CO2 incubator. Negative control cells were incubated with complete DMEM and positive control cells received complete DMEM containing 40 nM vincristin sulfate. Treated cells were fixed with 3% glutaraldehyde for 1.5 h followed by osmium tetroxide (2% in PBS) for 1 h. After fixation, cells were washed in PBS and sequentially dehydrated using 30%, 70%, and 100% ethanol. Fixed cells were attached to a metal stubs and sputter coated with platinum by using Emitech K550X coating unit (Qourum Technology, West Sussex, UK). The coated specimens were viewed using Inspect F50/FEG scanning electron microscope (FEI, Eindhoven, The Netherlands) at accelerating voltage of 2–5 kV. Bacillus cereus cells treated with 3,3′-di-O-methylquercetin for 24 h were collected by centrifugation and washed with sodium phosphate buffer. Following that, the samples were fixed in 2.5% glutaraldehyde in 0.1 M phosphate buffer, pH 7.3, at 4 °C overnight, and postfixed in 1% osmium tetroxide in the phosphate buffer for 1 h at room temperature. Bacterial cells were dehydrated with sequential ethanol concentrations (30–100%) and coated for the observations under scanning electron microscope.

MIC [1]: 250 µg/mL (≈ 757 µM)
MIC (Candida albicans): 250 µg/mL (≈ 757 µM)
Structure (SMILES): COc1cc(-c2oc3cc(O)cc(O)c3c(=O)c2OC)ccc1O [3,3′-di-O-Methylquercetin]
Apoptosis induction (DNA fragmentation, TUNEL) (MCF-7 cells [2]): increase in the number of apoptotic cells with fragmented DNA
Cytomorphological alterations (scanning electron microscopy) (MCF-7 cells [3]): cell shrinkage, membrane blebbing, loss of contact with neighboring cells, and formation of apoptotic bodies
